According to patent publication US20260327234A1, “NOVEL COMPOUNDS AS CYP11A1 INHIBITORS AND METHODS OF USE THEREOF” (Shenzhen Ionova Life Science Co., Ltd., priority 2023, published 2026):

Columns and labels:
CYP11A1 = target: T1, CYP11A1 (Homo sapiens, UniProt P05108); assay: H295R Steroid Biosynthesis Inhibition Assay - inhibition of pregnenolone (P) production catalyzed by CYP11A1 in NCI-H295R cells; type: cell-based; conditions: 48 h, LC-MS/MS, read-out: Inh. of P IC50
T1 construct: measuring the cellular production of pregnenolone (P) catalyzed by CYP11A1; host or cells: NCI-H295R
T1 sequence (P05108 40-521): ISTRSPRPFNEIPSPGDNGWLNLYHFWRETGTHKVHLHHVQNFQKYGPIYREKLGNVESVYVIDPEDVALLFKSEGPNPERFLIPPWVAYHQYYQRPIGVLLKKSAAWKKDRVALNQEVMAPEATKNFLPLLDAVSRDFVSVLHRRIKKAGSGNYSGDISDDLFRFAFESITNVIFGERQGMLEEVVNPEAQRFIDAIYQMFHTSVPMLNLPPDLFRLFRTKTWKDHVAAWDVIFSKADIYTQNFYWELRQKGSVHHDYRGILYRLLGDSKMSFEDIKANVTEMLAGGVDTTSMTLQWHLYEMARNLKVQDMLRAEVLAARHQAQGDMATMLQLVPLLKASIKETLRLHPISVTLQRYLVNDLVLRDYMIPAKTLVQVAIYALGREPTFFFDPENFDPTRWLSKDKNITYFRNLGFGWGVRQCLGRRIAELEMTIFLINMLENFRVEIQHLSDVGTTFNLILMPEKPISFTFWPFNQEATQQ
Method: (§1) Steroid Biosynthesis Inhibition by test compounds in NCI-H295R cells (ATCC) was studied by measuring the cellular production of pregnenolone (P) catalyzed by CYP11A1 and the downstream steroid, testosterone (T). Cells were cultured in Dulbecco's modified eagle's medium F12 (DMEM/F12) with phenol red (Gibco, Cat. No. 11330032) supplemented with 2% UltroserG (Pall, Cat. No. 15950-017, USA), 1% ITS-Premix and 1% penicillin and streptomycin (Hyclone, Cat. No. SV30010, USA). Prior to the assay, cells were thawed and passed 4 times. The maximal passage number used for the assay was 10. For this assay, DMEM/F12 without phenol red supplemented with 10% charcoal-stripped fetal bovine serum (VivaCell, Cat. No. C3830-0500, USA) were used. In a 96-well plate, 60,000 cells/well were plated (90 μL/well) and incubated for 24 h. Test compounds, diluted in a serial dilution ranging from 1000 nM to 0.15 nM in the assay medium, were added to the plate. After 48 h of incubation, solution from each well were collected and transferred to individual 1.5 mL centrifuge tubes, and then 5 ng/mL deuterated testosterone (D3-testosterone) and 50 ng/mL deuterated pregnenolone (D4-pregnenolone) in 200 μL acetonitrile were added. After vigorously mixing for 5 min, the mixture was centrifuged at 12,700 rpm for 15 min. An aliquot of 250 μL supernatant was collected and dried under N2 stream. After addition of 150 μL Methanol:water (1:1, v/v) to the dried product, 50 μL sample of this solution was injected into the LC-MS/MS system for analysis.
(§2) The half-maximal inhibitory concentration (IC50) for steroid biosynthesis inhibition was determined by curve-fitting with the 4-variable inhibitory dose response equation using GraphPad Prism software.
(§3) Testosterone and pregnenolone were analyzed using Shimadzu LC30AD HPLC system (Shimadzu, Kyoto, Japan) coupled with AB SCIEX Qtrap 5500 triple quadrupole mass spectrometer (AB Sciex, Framingham, MA, USA) via ESI interface in the positive ionization mode. An ACQUITY UPLC BEH Shield RP18 column (1.7 μm, 2.1×50 mm, Milford, MA, USA) maintained at 40° C. was used to separate analytes and IS form the sample matrix.
(§4) The mobile phase was a mixture of 10 mM ammonium acetate in water containing 0.2% formic acid (A) and methanol containing 0.2% formic acid (B) at a flow rate of 0.6 mL/min. The gradient program was set as follows: from 0 min to 0.5 min, 60% B; from 0.5 min to 3.5 min, 90% B; from 3.5 min to 4.5 min, 90% B; from 4.51 min to 5.0 min, 60% B. The injection volume was […].
(§5) The MS/MS parameters were set as follows: ion spray voltage, 5500 V; curtain gas, 35 psi; Gas 1, 55 psi; Gas 2: 55 psi; temperature, […]. The optimized multiple reaction monitoring (MRM) fragmentation transitions and MS parameters of each analyte are summarized in Table 1.

[1] = target: T2, testosterone (T) production in NCI-H295R cells (Homo sapiens, UniProt P05108); assay: H295R Steroid Biosynthesis Inhibition Assay - inhibition of testosterone (T) production in NCI-H295R cells; type: cell-based; conditions: 48 h, LC-MS/MS, read-out: Inh. of T IC50
T2 construct: testosterone measured by LC-MS/MS as downstream steroid
T2 sequence (P05108 40-521): T1 sequence (P05108 40-521)
Method: as §1, §2, §3, §4, §5

| IC50 (CYP11A1) [nM] | IC50 [1] [nM] | SMILES |
| --- | --- | --- |
| ≤ 40 | ≤ 40 | CC(C)S(=O)(=O)N1CCC(c2cnc3cc(CN4Cc5ccccc5C4)ccc3n2)CC1 [Compound 94] |
| ≤ 40 | ≤ 40 | O=S(=O)(C1CC1)N1CCC(c2cnc3cc(CN4Cc5ccccc5C4)ccc3n2)CC1 [Compound 95] |
| ≤ 40 | ≤ 40 | O=S(=O)(C1CCCC1)N1CCC(c2cnc3cc(CN4Cc5ccccc5C4)ccc3n2)CC1 [Compound 96] |
| 40 to 100 | ≥ 101 | O=S(=O)(N1CCC(c2cnc3cc(CN4Cc5ccccc5C4)ccc3n2)CC1)C(F)(F)F [Compound 97] |
| ≤ 40 | ≤ 40 | O=S(=O)(c1ccccc1)N1CCC(c2cnc3cc(CN4Cc5ccccc5C4)ccc3n2)CC1 [Compound 98] |
| 40 to 100 | 41 to 100 | CN(C)S(=O)(=O)N1CCC(c2cnc3cc(CN4Cc5ccccc5C4)ccc3n2)CC1 [Compound 99] |
| ≤ 40 | ≤ 40 | CNS(=O)(=O)N1CCC(c2cnc3cc(CN4Cc5ccccc5C4)ccc3n2)CC1 [Compound 100] |
| ≥ 100 | ≥ 101 | CC(=O)N1CCC(c2cnc3cc(CN4Cc5ccccc5C4)ccc3n2)CC1 [Compound 101] |
| 40 to 100 | 41 to 100 | O=C(C1CC1)N1CCC(c2cnc3cc(CN4Cc5ccccc5C4)ccc3n2)CC1 [Compound 102] |
| 40 to 100 | ≥ 101 | O=C(C(F)F)N1CCC(c2cnc3cc(CN4Cc5ccccc5C4)ccc3n2)CC1 [Compound 103] |
| 40 to 100 | ≥ 101 | O=C(c1ccccc1)N1CCC(c2cnc3cc(CN4Cc5ccccc5C4)ccc3n2)CC1 [Compound 104] |
| 40 to 100 | ≥ 101 | O=C(c1ncccn1)N1CCC(c2cnc3cc(CN4Cc5ccccc5C4)ccc3n2)CC1 [Compound 105] |
| ≤ 40 | ≥ 101 | Cn1ccc(C(=O)N2CCC(c3cnc4cc(CN5Cc6ccccc6C5)ccc4n3)CC2)n1 [Compound 106] |
| 40 to 100 | ≥ 101 | O=C(c1ncc[nH]1)N1CCC(c2cnc3cc(CN4Cc5ccccc5C4)ccc3n2)CC1 [Compound 107] |
| 40 to 100 | ≥ 101 | Cn1ccnc1C(=O)N1CCC(c2cnc3cc(CN4Cc5ccccc5C4)ccc3n2)CC1 [Compound 108] |
| 40 to 100 | 41 to 100 | O=C(c1nccs1)N1CCC(c2cnc3cc(CN4Cc5ccccc5C4)ccc3n2)CC1 [Compound 109] |
| ≤ 40 | ≤ 40 | COC(=O)N1CCC(c2cnc3cc(CN4Cc5ccccc5C4)ccc3n2)CC1 [Compound 110] |
| ≤ 40 | ≤ 40 | CCOC(=O)N1CCC(c2cnc3cc(CN4Cc5ccccc5C4)ccc3n2)CC1 [Compound 111] |

| IC50 (CYP11A1) [nM] | IC50 [1] [nM] | SMILES |
| --- | --- | --- |
| 40 to 100 | 41 to 100 | CC(C)OC(=O)N1CCC(c2cnc3cc(CN4Cc5ccccc5C4)ccc3n2)CC1 [Compound 112] |
| 40 to 100 | 41 to 100 | CC(C)(C)OC(=O)N1CCC(c2cnc3cc(CN4Cc5ccccc5C4)ccc3n2)CC1 [Compound 113] |
| ≤ 40 | ≤ 40 | O=C(OC1CCCC1)N1CCC(c2cnc3cc(CN4Cc5ccccc5C4)ccc3n2)CC1 [Compound 114] |
| ≤ 40 | ≤ 40 | CNC(=O)N1CCC(c2cnc3cc(CN4Cc5ccccc5C4)ccc3n2)CC1 [Compound 115] |
| 40 to 100 | ≥ 101 | CCNC(=O)N1CCC(c2cnc3cc(CN4Cc5ccccc5C4)ccc3n2)CC1 [Compound 116] |
| 40 to 100 | ≥ 101 | CC(C)NC(=O)N1CCC(c2cnc3cc(CN4Cc5ccccc5C4)ccc3n2)CC1 [Compound 117] |
| ≥ 100 | ≥ 101 | O=C(NC1COC1)N1CCC(c2cnc3cc(CN4Cc5ccccc5C4)ccc3n2)CC1 [Compound 118] |
| ≤ 40 | 41 to 100 | CC(C)(C)NC(=O)N1CCC(c2cnc3cc(CN4Cc5ccccc5C4)ccc3n2)CC1 [Compound 119] |
| ≤ 40 | 41 to 100 | O=C(NCC(F)(F)F)N1CCC(c2cnc3cc(CN4Cc5ccccc5C4)ccc3n2)CC1 [Compound 120] |
| ≤ 40 | 41 to 100 | CN(C)C(=O)N1CCC(c2cnc3cc(CN4Cc5ccccc5C4)ccc3n2)CC1 [Compound 121] |
| ≥ 100 | ≥ 101 | O=S1(=O)CCC(c2cnc3cc(CN4Cc5ccccc5C4)ccc3n2)CC1 [Compound 124] |
| ≥ 100 | ≥ 101 | CS(=O)(=O)N1CCC(c2cnc3cc(CN4CCn5cccc5C4)ccc3n2)CC1 [Compound 125] |
| ≤ 40 | ≤ 40 | CS(=O)(=O)N1CCC(c2cc3cc(CN4Cc5ccccc5C4)ccc3o2)CC1 [Compound 126] |
| ≤ 40 | ≤ 40 | O[C@H]1CC[C@H](c2nc3cc(CN4Cc5ccccc5C4)ccc3o2)CC1 [Compound 127] |
| ≤ 40 | 41 to 100 | CS(=O)(=O)N1CCC(c2nc3cc(CN4Cc5ccccc5C4)ccc3s2)CC1 [Compound 128] |
| ≤ 40 | ≥ 101 | Cn1c(C2CCN(S(C)(=O)=O)CC2)nc2cc(CN3Cc4ccccc4C3)ccc21 [Compound 129] |
| ≤ 40 | ≥ 101 | Cn1c(C2CCN(S(C)(=O)=O)CC2)nc2ccc(CN3Cc4ccccc4C3)cc21 [Compound 130] |
| ≤ 40 | ≤ 40 | CS(=O)(=O)N1CCC(n2cc3ccc(CN4Cc5ccccc5C4)cc3n2)CC1 [Compound 131] |
